Source: US11696901B2 (SHAOGUAN UNIVERSITY, priority 2020, dated 2023)
“And” between values parts separate entries of the source, which are not always exact repeats. Identical values can stand only once.

Tests used:
[1] = DPPH⋅ scavenging activity; format: biochemical; conditions: positive control
Experimental: Moreover, it can also be acidified with citric acid to pH 4.6 and then pasteurized at 80° C. for 20 min; or filtered with a 0.22 μm organic filter for cold sterilization. The unsterilized beverage was used as control. The scavenging capacity toward DPPH free radical was used as an index to evaluate the sterilization effect, where the ascorbic acid (Vc) was used as positive control.
(§1) The beverage samples were prepared as follows.
2 mg, 4 mg, 6 mg, 8 mg and 10 mg of Vc were diluted with distilled water to 100 mL, respectively, that was, the final concentrations of the Vc were 20 μg/mL, 40 μg/mL, 60 μg/mL, 80 μg/mL and 100 μg/mL, respectively.
The reaction mixture was reacted in dark for 30 min, and then measured at 517 nm for the absorbance (A1), where a well containing the sample and 100 μL of absolute ethanol was used as control; a well containing 100 μL of distilled water and 100 μL of the DPPH solution was used as blank group; and Vc was used as positive control.
(§2) The scavenging rate was calculated as follows: scavenging rate %=[1−(A1−A2)/A0]×100%,

[2] = ABTS^+⋅ scavenging activity; format: biochemical; conditions: positive control
Experimental: as §1
2 mg, 4 mg, 6 mg, 8 mg and 10 mg of Vc were diluted with distilled water to 100 mL, respectively, that was, the final concentrations of the Vc were 20 μg/mL, 40 μg/mL, 60 μg/mL, 80 μg/mL and […], respectively.
5 mL of a K2S2O8 solution (2.6 mmol/L) and 10 mL of an […] (7.4 mmol/L) were mixed uniformly and reacted in dark for 12 h. The ABTS^+⋅ solution was diluted with phosphate buffer solution (pH=6.6) to an absorbance of 0.70±0.02 to produce a working solution. […] The reaction mixture was mixed uniformly, reacted in dark for 6 min and measured at 734 nm for the absorbance A1, where a well containing the sample and 160 μL of absolute ethanol was used as control; a well containing 40 μL of distilled water and 160 μL of the ABTS^+⋅ solution was used as blank group; and Vc was used as positive control.
as §2

[3] = Optimal concentration of stabilizer Zn^2+, absorbance of curcumin solution at 425 nm; format: physicochemical; conditions: after 60 h, room temperature
Experimental: A series of Zn^2+ stock solutions were prepared as follows. 0.03 g, 0.06 g, 0.09 g, 0.12 g, 0.15 g and 0.18 g of zinc sulfate were dissolved with 100 mL of distilled water and stirred uniformly to prepare a series of zinc sulfate stock solutions with a concentration of 0.3 g/L, 0.6 g/L, 0.9 g/L, 1.2 g/L, 1.5 g/L and 1.8 g/L, respectively, which were stored for use.
The 7 vessels were placed at room temperature and measured for the absorbance at 425 nm using a microplate reader every other 12 h, where each measurement was performed in triplicate.

[4] = Stability of absorbance (A/A0 after centrifugation); format: physicochemical; conditions: comparative experiment; curcumin concentration 6.0/5.8/4.8/4.0 mg/mL, pH 7/7/7/6 in row order; beverage = A3B2C2D2
Experimental: The absorbance (A0) of the sample before the centrifugation and the absorbance (A) of the sample after the centrifugation were measured at the maximum absorption wavelength, and the stability of absorbance was represented by A/A0.

[5] = Precipitation rate after centrifugation; format: physicochemical; conditions: comparative experiment; curcumin concentration 6.0/5.8/4.8/4.0 mg/mL, pH 7/7/7/6 in row order; beverage = A3B2C2D2
Experimental: The weight of the centrifuge tube and the total weight of the sample and the centrifuge tube were measured, and then the sample was centrifuged at 4,000 r/min for 15 min. The supernatant was discarded and the total weight of the centrifuge tube and the precipitate was accurately measured.
The precipitation rate was calculated as follows: precipitation rate=precipitate weight/sample weightx 100%.

[6] = Table 18 (starch sodium octenyl succinate series)
[7] = Table 19, one value beside each beverage (nanoparticle powder 0.2-1.0%)
[8] = Table 21, one value beside each test number
[9] = verification experiment, mean of three repeats
[10] = verification experiment, single repeats 1-3

SMILES	DPPH · scavenging rate (%) Vc ([1]; Table 16 (CMC-Na series)) [%]	DPPH · scavenging rate (%) Vc ([1]; Table 17 (xanthan gum series)) [%]	DPPH · scavenging rate (%) Vc [1, 6] [%]	Rate of DPPH · radical clearance (%) Vc [1, 7]	DPPH · scavenging rate (%) Vc [1, 8]	DPPH · scavenging rate (%) Vc [1, 9] [%]	DPPH · scavenging rate (%) Vc [1, 10]	ABTS^+ · scavenging rate (%) Vc ([2]; Table 16 (CMC-Na series)) [%]	ABTS^+ · scavenging rate (%) Vc ([2]; Table 17 (xanthan gum series)) [%]	ABTS^+ · scavenging rate (%) Vc [2, 6] [%]	Rate of ABTS^+ · radical clearance (%) Vc [2, 7]	ABTS^+ · scavenging rate (%) Vc [2, 8]	ABTS^+ · scavenging rate (%) Vc [2, 9] [%]	ABTS^+ · scavenging rate (%) Vc [2, 10] [%]	absorbance of curcumin solution at 425 nm over time ([3]; Zn^2+ concentration 0.3 g/L)	absorbance of curcumin solution at 425 nm over time ([3]; Zn^2+ concentration 0.36 g/L)	Coefficient of absorbanee stability [4]	Precipitation rate after centrifugation (%) [5] [%]
O=C1O[C@H]([C@@H](O)CO)C(O)=C1O [Vc, ascorbic acid]	92.51	92.51	92.51	93.15% and 93.62% and 93.67% and 91.72% and 92.51%	95.72% and 93.44% and 94.65%	94.5 ± 0.00	95.59% and 94.59%	90.38	90.38	90.38	92.44% and 93.69% and 94.53% and 88.12% and 90.38%	96.13% and 92.88% and 95.10%	95.34 ± 0.00	95.34				
COc1cc(/C=C/C(=O)CC(=O)/C=C/c2ccc(O)c(OC)c2)ccc1O [Pure curcumin, Curcumin]															smallest slope and relatively stable absorbance	declining tendency	0.286 ± 0.180	0.550 ± 0.100
